Data taken from patent US20190060320A1, “MEDICAL USE OF PHARMACEUTICAL COMBINATION OR COMPOSITION” (Boehringer Ingelheim International GmbH, priority 2016, published 2019).

Assay: Multicentre, double-blind, placebo-controlled clinical trial of glycaemic and renal effects of linagliptin in patients with type 2 diabetes and albuminuria
Format: in vivo, human
Description: A multicentre, double-blind, placebo-controlled clinical trial investigates glycaemic and renal effects of linagliptin in patients with type 2 diabetes, album inuria and estimated GFR ≥30 ml/min/1.73 m2 (with or without renal function impairment).
A total of 360 patients with type 2 diabetes (HbA1c 6.5-10%) and persistent albuminuria (urinary albumin-to-creatinine ratio [UACR] 30-3000 mg/gCr; i.e. micro- or macro-albuminuria) despite stable background (standard-of-care) of single renin-angiotensin system blockade (ARB or ACE inhibitor) are randomised to either linagliptin 5 mg (n=182) or placebo (n=178) for 24 weeks. Primary glycaemic and key secondary renal surrogate endpoints are HbA1c and UACR change from baseline over 24 weeks, respectively.

## CC#CCn1c(N2CCC[C@@H](N)C2)nc2c1c(=O)n(Cc1nc(C)c3ccccc3n1)c(=O)n2C [linagliptin, 1-[(4-methyl-quinazolin-2-yl)methyl]-3-methyl-7-(2-butyn-1-yl)-8-(3-(R)-amino-piperidin-1-yl)-xanthine]
Over 24 weeks, linagliptin 5 mg vs placebo, 95% CI −15.0, 3.0, NS
  placebo-adjusted gMean for time-weighted average of % change in UCAR from baseline: −6.0%
Over 24 weeks, linagliptin 5 mg, 95% CI −16.8, −4.7
  gMean for time-weighted average of % change from baseline in UACR: −11.0%
Post hoc exploratory subgroup analysis, linagliptin on metformin background (and CKD3, eGFR 30-60) compared to patients without metformin
  difference in the changes from baseline vs. placebo in urinary albumin to creatinine ratio (UACR), subgroup on a background of metformin: numerically larger difference
Week 24, linagliptin 5 mg vs placebo, 95% CI −0.78, −0.43, p<0.0001
  placebo-adjusted mean HbA1c change from baseline: −0.60%
